The text below walks through data of PubChem BioAssay (NCI).

Some test systems named below: A549 NSCLC; PC-3 prostate; OVCAR-8 ovarian; SK-OV-3 ovarian; MALME-3M melanoma; TK-10 renal; HOP-92 NSCLC; CAKI-1 renal; A498 renal; 786-0 renal.
Holding throughout (assay): growth of human tumour cells (NCI), 48 h

Each structure is given as a SMILES string.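 Growth conditions: 96-well plates. Treatment: test compound, 48 hours, 5 concentrations. Analysis: linear interpolation between bracketing concentrations; unreached endpoints set to highest concentration. GI50 marks 50% less growth. At the TGI there is no net growth.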 *1 amine or outer side, *2 acyl side, *3 side chain or, on linkers, in order; H or OH if unused. Where a SMILES comes first, the peptide text is derived from it. Bridges are numbered along the chain shown (N, C = ends). [ ]: non-standard residue; d: D form. The star is where a group is joined. Phe(3,5-F2) = N[C@@H](Cc1cc(F)cc(F)c1)C(=O)O; Pro(4R-Me) = C[C@H]1CN[C@H](C(=O)O)C1; aThr = C[C@H](O)[C@H](N)C(=O)O; Pip = O=C(O)[C@@H]1CCCCN1; X10 = Fc1cc(C2CC2)ccc1N*; CO = O=C([*:1])[*:2]

Take `Cc1cnc(NCCCN(C)C)c2c1[nH]c1ccc3cc(O)ccc3c12`: the TGI came out at 2.5 µM with A549 NSCLC; 2.21 µM in the assay on PC-3 prostate; 1.96 µM in the assay on OVCAR-8 ovarian; 2.75 µM in the assay on SK-OV-3 ovarian; 2.2 µM in the assay with MALME-3M melanoma; 15.8 µM in the assay with TK-10 renal. The TGI with HOP-92 NSCLC worked out at 1.31 µM; in the assay with CAKI-1 renal it was 4.18 µM; in the assay on A498 renal it was 3.71 µM; in the assay on 786-0 renal it was 1.84 µM.
Regarding `CC1CCc2nc[nH]c(=O)c21` (stereo not given), the GI50 with A549 NSCLC, in the assay with PC-3 prostate, with OVCAR-8 ovarian, with SK-OV-3 ovarian, in the assay with MALME-3M melanoma and in the assay on TK-10 renal was over 100 µM throughout. For the same compound, the GI50 in the assay on HOP-92 NSCLC, with CAKI-1 renal, with A498 renal and in the assay on 786-0 renal was over 100 µM each time. Further, the TGI with A549 NSCLC, with PC-3 prostate, in the assay on OVCAR-8 ovarian, in the assay with SK-OV-3 ovarian, in the assay with MALME-3M melanoma and with TK-10 renal was over 100 µM in each case. In addition, the TGI with HOP-92 NSCLC, with CAKI-1 renal, in the assay with A498 renal and in the assay with 786-0 renal was over 100 µM throughout.
Regarding `CCN1CCN(Cc2ccc(NC(=O)c3cccc(C#Cc4cccc5[nH]nc(N)c45)c3)cc2C(F)(F)F)CC1`, the GI50 is 1.13 µM in the assay on A549 NSCLC; 1.36 µM in the assay on PC-3 prostate; 0.395 µM with OVCAR-8 ovarian; 0.802 µM with SK-OV-3 ovarian; 0.0273 µM with MALME-3M melanoma; 0.631 µM in the assay with TK-10 renal. Besides, the GI50 in the assay with HOP-92 NSCLC is 0.35 µM; with CAKI-1 renal, 0.485 µM; in the assay with A498 renal, 0.108 µM; in the assay on 786-0 renal it was 0.402 µM. In addition, the TGI in the assay with A549 NSCLC turned out to be 2.48 µM; in the assay with PC-3 prostate, 3.13 µM; in the assay with OVCAR-8 ovarian, 1.53 µM; with SK-OV-3 ovarian, 2.2 µM; in the assay with MALME-3M melanoma, 0.422 µM; in the assay with TK-10 renal, 1.75 µM. Besides, the TGI came to 1.89 µM with HOP-92 NSCLC, 1.76 µM in the assay on CAKI-1 renal, 1.07 µM in the assay on A498 renal and 1.32 µM in the assay on 786-0 renal.
Consider `O=[N+]([O-])c1ccc2c(c1)/C(=N/N=C1c3ccccc3Cc3ccccc31)c1cc([N+](=O)[O-])cc([N+](=O)[O-])c1-2`, for which the TGI in the assay with A549 NSCLC was found to be 25.3 µM; in the assay with PC-3 prostate it was 10.2 µM; in the assay with OVCAR-8 ovarian, 3.24 µM; in the assay on SK-OV-3 ovarian, 27.3 µM; with MALME-3M melanoma, 6.46 µM; with TK-10 renal it was 11.5 µM. Also, the TGI amounted to 8.61 µM in the assay on HOP-92 NSCLC, 9.36 µM in the assay on CAKI-1 renal, 18.2 µM with A498 renal and 3.41 µM in the assay with 786-0 renal.
On to `C[C@@H]1C[C@H]2C(=O)O[C@@H](C)[C@H](NC(=O)[C@H](Cc3cc(F)cc(F)c3)NC(=O)Nc3ccc(C4CC4)cc3F)C(=O)N3CCC[C@H]3C(=O)N3CCCC[C@H]3C(=O)N[C@@H](C)C(=O)N2C1` ({X10-CO}-[Phe(3,5-F2)][aThr]P[Pip]A[Pro(4R-Me)]; ester 2-C), for which the GI50 in the assay on A549 NSCLC was 0.0507 µM; in the assay on PC-3 prostate, 0.0355 µM; in the assay on OVCAR-8 ovarian it was 0.0383 µM; in the assay on SK-OV-3 ovarian, 0.0504 µM; in the assay with MALME-3M melanoma, 0.0635 µM; in the assay with TK-10 renal, 0.343 µM. For the same compound, the GI50 in the assay with HOP-92 NSCLC was 0.0452 µM; in the assay with CAKI-1 renal, 0.04 µM; in the assay on A498 renal it was 0.0203 µM; in the assay on 786-0 renal it was 0.0817 µM. The TGI in the assay on A549 NSCLC is over 100 µM; in the assay on PC-3 prostate, over 36 µM; in the assay with OVCAR-8 ovarian, over 100 µM; in the assay on SK-OV-3 ovarian, 16 µM; in the assay on MALME-3M melanoma, 5.9 µM; in the assay on TK-10 renal it was over 35.1 µM. In addition, the TGI is 4.76 µM in the assay on HOP-92 NSCLC, 10.3 µM in the assay with CAKI-1 renal, 0.363 µM in the assay with A498 renal and over 38.4 µM in the assay with 786-0 renal.
Take `Fc1[nH]nc2ccc([C@@H]3Nc4ccc5[nH]ncc5c4[C@H]4C5CCC(C5)[C@@H]34)cc12` (stereo not given in full): the GI50 with A549 NSCLC was 1.03 µM; in the assay with PC-3 prostate it was 1.12 µM; with OVCAR-8 ovarian, 2.46 µM; in the assay with SK-OV-3 ovarian it was 1.88 µM; in the assay with MALME-3M melanoma, 11.6 µM; in the assay with TK-10 renal it was 3.51 µM. Besides, the GI50 in the assay with HOP-92 NSCLC was 2 µM; in the assay on CAKI-1 renal, 0.671 µM; in the assay on A498 renal it was 0.536 µM; in the assay on 786-0 renal, 2.82 µM. The TGI with A549 NSCLC stood at 12.1 µM; with PC-3 prostate, 13.6 µM; with OVCAR-8 ovarian, 16.4 µM; in the assay on SK-OV-3 ovarian, 16.5 µM; in the assay on MALME-3M melanoma, 26 µM; with TK-10 renal it was 15.5 µM. Also, the TGI was 14.2 µM in the assay on HOP-92 NSCLC, 15 µM in the assay on CAKI-1 renal, 3.91 µM with A498 renal and 15.6 µM in the assay with 786-0 renal.
In the case of `C=C(C)C(OC)C(O)CC1(C)CC(O)CC(C)(C2CCC3OC(C4(C)CCC(Br)C(C)(C)O4)CCC3(C)O2)O1` (stereo not given), the GI50 in the assay with A549 NSCLC was 21 µM; in the assay with PC-3 prostate, 15.4 µM; in the assay with OVCAR-8 ovarian, 21.1 µM; in the assay on SK-OV-3 ovarian it was 22.8 µM; with MALME-3M melanoma, 14.9 µM; in the assay with TK-10 renal it was 16 µM. The GI50 in the assay on HOP-92 NSCLC was 15.8 µM; in the assay with CAKI-1 renal it was 18.1 µM; in the assay on A498 renal it was 16.5 µM; in the assay on 786-0 renal, 17.8 µM. Besides, the TGI is over 58 µM in the assay with A549 NSCLC; 32.4 µM with PC-3 prostate; 50.2 µM in the assay on OVCAR-8 ovarian; 54.3 µM in the assay on SK-OV-3 ovarian; 32.5 µM with MALME-3M melanoma; 33.5 µM in the assay with TK-10 renal. For the same compound, the TGI in the assay with HOP-92 NSCLC worked out at 34 µM; in the assay with CAKI-1 renal, 38.3 µM; in the assay on A498 renal, 31.1 µM; with 786-0 renal, 33.6 µM.
Take `NC(N)=NS(=O)(=O)c1ccc(Nc2c3ccccc3nc3c(C(=O)NCCO)cccc23)cc1`: the GI50 is 20.1 µM with A549 NSCLC; 22.2 µM in the assay on PC-3 prostate; 29.8 µM in the assay on OVCAR-8 ovarian; 51.6 µM in the assay with SK-OV-3 ovarian; 16.7 µM in the assay on MALME-3M melanoma; 18.7 µM in the assay with TK-10 renal. Also, the results for the GI50 in the assay on CAKI-1 renal, in the assay on A498 renal and in the assay on 786-0 renal were 22.8 µM, 13.6 µM and 21 µM, respectively. The TGI in the assay with HOP-92 NSCLC turned out to be 0.747 µM.
